Laboratory results: patent US11442059B2, “Method for treating a chronic itch condition by administering small molecule MrgprX4 antagonists” (The Johns Hopkins University, priority 2017, dated 2022)

Key:
[1] = target: T1, MRGPRX2 (Homo sapiens, UniProt Q96LB1); test: Cell membrane chromatography, MRGPRX2/CMC column; assay type: binding; conditions: affinity chromatography elution profile
T1 construct: expressed in transfected cells; host or cells: HEK293 (MRGPRX2-HEK) membranes on silica
T1 sequence (Q96LB1 1-330): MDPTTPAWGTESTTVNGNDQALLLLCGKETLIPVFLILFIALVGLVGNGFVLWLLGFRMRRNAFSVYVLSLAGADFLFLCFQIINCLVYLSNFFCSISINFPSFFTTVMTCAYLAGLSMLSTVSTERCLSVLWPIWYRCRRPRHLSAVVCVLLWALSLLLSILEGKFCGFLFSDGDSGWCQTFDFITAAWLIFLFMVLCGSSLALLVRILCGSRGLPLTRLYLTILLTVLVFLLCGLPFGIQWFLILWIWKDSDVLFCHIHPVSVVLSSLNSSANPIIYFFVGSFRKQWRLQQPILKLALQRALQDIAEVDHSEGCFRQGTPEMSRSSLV
Description: CMC analysis was performed with a Shimadzu LC-2010A apparatus that consisted of pumps, degasser, autosampler, column oven, and a diode-array detector (Shimadzu, Kyoto, Japan). The data were acquired by the Lab-solution program (Shimadzu). The mobile phase consisted of phosphate-buffered saline (PBS; 5 mM, pH 7.4) and was delivered at a flow rate of 0.2 ml/min. The stock solutions (100 μM) of lamotrigine were prepared by separately dissolving the standard drugs in methanol. Standard solutions at various concentrations were prepared by diluting the stock solutions with the mobile phase. The MRGPRX2/CMC and MRGPRX4/CMC column was prepared as follows. Briefly, MRGPRX4-expressed HEK293 cells (1×10^8) were harvested and centrifuged (1000 g, 10 min, at 4° C.). Cells were washed with physiological saline (pH=7.4) by centrifugation at 1000 g for 10 min at 4° C. Cells were lysed by ultrasonic in Tris-HCl (50 mM, pH=7.4) for 30 min and centrifuged twice at 1000 g for 10 min at 4° C. The collected supernatant was then centrifuged at 12000 g for 20 min at 4° C. and the pellet was resuspended in 5 ml ice-cold physiological saline solution. […] The cell membrane suspension was homogenized/adsorbed with the activated silica under vacuum with agitation at 4° C. overnight. […]

[2] = system: Mrgpra1 knockout mice; test: Dendritic cell adoptive transfer into Mrgpra1 KO mice with daily LTG; assay type: in vivo, mouse; conditions: Mrgpra1 KO animals who received WT dendritic cells; 7-10 days of LTG 50 mg kg−1
Description: Spleens from naïve 129S1 WT mice or Mrgpra1−/− mice were aseptically removed and DCs were isolated using mouse Pan Dendritic Cell isolation kit (Miltenyi Biotec) according to the manufacturer's manual. Briefly, single cell suspensions from spleen were generated by collagenase D/DNase I digestion as above mentioned. Then, cocktail of biotin-conjugated antibodies against non-dendritic cells followed by anti-biotin magnetic microbeads were added to the cell suspensions. Dendritic cells were separated from bead labelled non-dendritic cells using LS column. Dendritic cells freshly isolated either from WT mice or KO animals suspended in 200 μl Hanks' Balanced Salt Solution (HBSS) were injected intravenously (tail vein) into the naïve male Mrgpra1 knockout mice (2×10^6 cells/mouse) one day before starting daily LTG (50 mg kg^−1 body weight) administration.

[3] = system: human dendritic cells; test: Calcium imaging of human dendritic cells; assay type: cell-based
Description: In initial experiments, HEK293 cells were plated on 100 μg/ml poly-D-lysine coated glass cover slips, and transiently transfected with vector containing Mrgprs gene, after 24-48 hours of culture, cells were loaded with Fura 2-acetomethoxy ester calcium indicator (0.5 μM, Molecular Probes) along with pluronic F-127 dispersing agent (0.1%, Molecular Probes) for 30 minutes in the dark at 37° C., then washed with calcium imaging buffer (CIB; NaCl 125 mM, KCl 3 mM, CaCl2 2.5 mM, MgCl2 0.6 mM, HEPES 10 mM, glucose 20 mM, NaHCO3 1.2 mM, sucrose 20 mM, brought to pH 7.4 with NaOH). Drugs were added to Fura 2-loaded cells and intracellular free calcium was measured using 340 nm and 380 nm excitation wavelengths with emission measured at 520 nm with a microscope based imaging system (Nikon Eclipse TE200). Changes in emission fluorescence ratios at 340/380 nm excitation were continuously monitored at 1 second intervals. Later, experiments were performed using Mrgpra1-GFP, Mrgprc11-GFP and MRGPRX4-GFP stable cell lines to confirm the findings obtained from the transiently expressing cells.
Human Peripheral Blood Dendritic Cells from four different donors were purchased from Lonza (cc-2701) and […] Technologies (70041). […]

[4] = target: T2, Mrgprc11-GFP (Mus musculus, UniProt Q8CIP3); test: Receptor internalization assay, Mrgprc11-GFP HEK293 cells; assay type: cell-based; conditions: data not shown
T2 construct: expressed in transfected cells
T2 sequence (Q8CIP3 1-322): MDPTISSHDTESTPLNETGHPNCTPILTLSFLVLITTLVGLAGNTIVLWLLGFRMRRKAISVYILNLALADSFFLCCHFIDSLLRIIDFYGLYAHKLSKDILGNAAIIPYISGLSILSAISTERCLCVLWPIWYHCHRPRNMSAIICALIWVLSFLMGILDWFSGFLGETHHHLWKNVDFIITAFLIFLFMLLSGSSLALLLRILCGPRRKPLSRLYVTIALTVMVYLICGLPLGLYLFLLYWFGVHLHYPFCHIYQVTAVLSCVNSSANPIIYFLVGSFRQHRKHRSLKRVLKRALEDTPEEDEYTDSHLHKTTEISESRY
Description: To label the drug with red-fluorescent dye, […] of LTG was dissolved in 50 μl dimethyformamide (DMF) first, and further diluted with 450 μl reaction buffer (0.1M sodium bicarbonate buffer, pH9.0) to obtain LTG at a concentration of 7.8 mM. Then, 50 μl of Texas-red-conjugated sulfonyl chloride (Thermo Fisher Scientific, T1905) dissolved in DMF at 10 mg ml−1 was slowly added into LTG solution. The reaction was incubated at 4° C. for 1 hour with continuous stirring. The mixture was then diluted into cell culture medium for further use. LTG labeled with Texas Red dye can create bright red-fluorescence with excitation/emission maxima ˜595/615 nm. HEK293 cells stably expressing Mrgpra1-GFP, Mrgprc11-GFP or MRGPRX4-GFP fusion protein were grown in DMEM with 10% FBS. After 4-6 hours of serum starvation, cells were treated with either medium, dye alone, unlabeled LTG or Texas-Red-labeled LTG at 37° C. for 15 or 60 min. Cells were washed with PBS and fixed with 4% paraformaldehyde in PBS. The subcellular localization of Mrgpr-GFP or drug was visualized under a confocal fluorescence microscope with a 400× magnification (Zeiss LSM 700).

SMILES: Nc1nnc(-c2cccc(Cl)c2Cl)c(N)n1 [LTG, Lamotrigine]
- retention on MRGPRX2/CMC column [1]: cannot retain
- animals developing SJS-like eye manifestation [2]: 64%
- cells activated (Ca2+ imaging) [3]: about 5%
- internalization of Mrgprc11-GFP [4]: did not induce the internalization
